Laboratory results: PMC2131780, “A Tale of Switched Functions: From Cyclooxygenase Inhibition to M-Channel Modulation in New Diphenylamine Derivatives” (PLoS ONE, 2007)
Like-named read-outs stand apart in the source and are kept apart here.

Key:
[1] = system: COX enzymes (CT26 mouse colon adenocarcinoma cells); test: COX inhibition, PGE2 production in CT26 cells; type: cell-based
Description: In addition, the aromatic rings of the diphenylamine moiety were substituted with different electron donating or withdrawing groups. In a first screen, two parameters were checked: (a) the non-selective inhibition of COX-1/COX-2 enzyme activities, measured by the production of PGE2 in cultured mouse colon adenocarcinoma (CT26) and mouse Lewis lung carcinoma cells (D122) cells; (b) the M-channel activity, measured by the heterologous coexpression of Kv7.2 and Kv7.3 subunits in Chinese hamster ovary (CHO) cells.
Mouse colon adenocarcinoma CT26 and mouse Lewis lung carcinoma D122 cells were grown in DMEM (D122) or RPMI (CT26) supplemented with 10% fetal calf serum, 4% glutamine, 1% penicillin-streptomycin-nystatin and 3% non essential amino acids (D122) and maintained in a humidified 37°C incubator with 5% CO2. For the COX assays, cells were grown onto 24 multiwell plates. Before the assay, cells were washed with serum-free medium; then tested compounds were added to the medium and incubated for 30 min at 37°C after which 30 µM arachidonic acid was added and incubated for additional 20 min. At the end of the incubations, 10 µM indomethacin was added to stop the reaction and medium was transferred to another 24 multiwell plate for measuring PGE2 production by radioimmunoassay (DuPont-NEN; Boston, MA) according to manufacturer protocol. Protein determination was assayed on scraped cells and was used to normalize the amount of PGE2 production. Assays with purified ovine COX-1 and human recombinant COX-2 were performed using the COX inhibitor screening assay (Cayman chemical company, Ann Arbor, MI), according to manufacturer protocol.

[2] = system: rat hippocampal neurons; test: Current-clamp recording of cultured hippocampal neurons; type: cell-based
Description: For hippocampal neuronal cultures, Sprague-Dawley rat embryos (E18) were removed by caesarian section and their hippocampi were dissected out. The tissue was digested with papain for 20 min, triturated to a single-cell suspension, and plated at a density of 40,000 cells per ml on a substrate of bovine collagen type IV and 100 µg/ml poly-L-lysine in 13 mm diameter glass coverslips of a 24-multiwell plate. The culture medium consisted of Modified Eagle's Medium containing 5% horse serum (Biological Industries, Beit HaEmek, Israel), B-27 neuronal supplement (Invitrogen, Carlsbad, CA), 100 U/ml penicillin, 100 µg/ml streptomycin, and 2 mM glutamine. D-glucose was supplemented to a final concentration of 6 g/l. Cytosine-1-D-arabinofuranoside (5 µM) was added after 5 days to arrest glial cell proliferation. For electrophysiological recordings hippocampal neurons were used at 10–14 days in culture. All cultures were maintained at 37°C in humidified air containing 5% CO2.
For current-clamp recordings in primary cultured neurons, the patch pipettes were filled with (in mM): 135 KCl, 1 K2ATP, 1 MgATP, 2 EGTA, 1.1 CaCl2, 5 glucose, 10 HEPES, adjusted with KOH at pH 7.4 (315 mOsm). […] A liquid junction potential of about −15.6 mV was measured between the intracellular and saline solutions and corrected on-line. […]

[3] = system: primary hippocampal neurons (glutamate and GABA release); test: Spontaneous and miniature post-synaptic currents in cultured hippocampal neurons; type: cell-based, rat
Description: Because of their slow activation and their lack of inactivation, M-channels could modulate neuronal activity during repetitive spike discharge and tune neurotransmitter release. Figure 8 illustrates the effect of compound 15 on synaptic transmission and transmitter release. Spontaneous excitatory and inhibitory post-synaptic currents (sEPSCs and sIPSCs) were recorded from dense cultures of primary hippocampal neurons, using the voltage-clamp configuration of the whole-cell patch-clamp technique. […] Spontaneous EPSCs were recorded at −70 mV and were pharmacologically isolated by blocking GABAA receptor-mediated inhibitory post-synaptic currents (with 10 µM bicuculline and 30 µM picrotoxin). The sEPSCs were […] mediated by the activation of AMPA receptors and to a lesser extent of NMDA receptors, as they were blocked by 10 µM NBQX and 10 µM AP-5. Thus, sEPSCs reflect the synaptic release of glutamate. Under control conditions, sEPSCs appeared as repetitive bursts whose frequency was variable, ranging from 0.3 to 2 Hz and increasing with the density of the hippocampal culture. […] Consequently, compound 15 reduced by about 50% the total charge transfer as well as the charge transfer within the bursts (Figure 8D–F).
For hippocampal neuronal cultures, Sprague-Dawley rat embryos (E18) were removed by caesarian section and their hippocampi were dissected out. […]
Spontaneous excitatory postsynaptic currents (EPSCs) were recorded in the voltage-clamp configuration of the whole-cell patch-clamp technique at a holding potential of −70 mV as previously described; the extracellular solution contained (in mM) 160 NaCl, 2.5 KCl, 10 HEPES, 10 glucose, 2 CaCl2; pH 7.3 (325 mOsm), to which 30 µM picrotoxin and 10 µM bicuculline methyl iodide were added. […] Spontaneous inhibitory postsynaptic currents (IPSCs) were recorded at a holding potential of −70 mV; the extracellular solution contained (in mM) 160 NaCl, 2.5 KCl, 10 HEPES, 10 glucose, 2 CaCl2; pH 7.3 (325 mOsm), to which 10 µM NBQX and 10 µM AP-5 were added. […]

For `O=C(Cc1cc([N+](=O)[O-])ccc1Nc1c(Cl)cccc1Cl)OCCO` [Compound 15], the IC50 ([1]; average of two experiments in triplicate, read-out: COX inhibition (IC50, µM) CT26) was 0.048 µM, the IC50 ([1]; read-out: COX inhibition IC50, typical experiment (Figure 1)) was 0.069 µM and the “number of evoked action potentials, hippocampal neurons” value ([2]; 25 µM, 75–200 pA for 400 ms) was 2.1±0.5. For the same compound, the “hyperpolarization of hippocampal neurons” value ([2]; exposed to compound) was −8.5 mV, the “reduction of sEPSCs total charge transfer and charge transfer within bursts” value ([3]; 25 µM, holding −70 mV) was “about 50%” and the inhibition at 25 µM ([3]; Rattus norvegicus, Hippocampal neuron, 25 µM, holding −70 mV, read-out: inhibition of sIPSCs frequency of spontaneous occurrence) was over 98%. For the same compound, the “effect on amplitude and kinetics of miniature EPSCs and IPSCs” value ([3]; not shown) was “did not affect”.
